Results taken from the NIST ThermoML archive (doi:10.1016/j.jct.2009.04.009).

Conditions: Liquid

CC(C)CO [2-methyl-1-propanol]
Recirculating still
Conditions	vapor or sublimation pressure [kPa]
336.9 K	15
351.2 K	30
357.7 K	40
362.9 K	50
367.4 K	60
371.3 K	70
374.7 K	80
377.8 K	90
380.7 K	100
383.3 K	110
385.8 K	120
388 K	130
390.2 K	140
392.2 K	150

CC(C)CCO [3-methylbutan-1-ol]
Recirculating Still
Conditions	vapor or sublimation pressure [kPa]
357.5 K	15
367.2 K	23.5
374.4 K	32
380.1 K	40.5
384.8 K	49
389.1 K	57.5
392.8 K	66
402 K	91.5
407 K	108.5
409.3 K	117
411.4 K	125.5
413.5 K	134
415.4 K	142.5
417.3 K	151
419.2 K	159.5
420.9 K	168
422.4 K	176.5
